Data published in US9499550B2 (BRISTOL-MYERS SQUIBB COMPANY, priority 2012, dated 2016).
Read-outs that look alike come from different tables or passages of the source.

Columns and labels:
[1] = system: HCV genotype 1a (H77 strain) replicon in HUH-7 cells; assay: HCV replicon luciferase reporter assay, genotype 1a; assay type: cell-based; conditions: Hepatitis C virus, Huh-7, 72 h, 3 days incubation
Summary of the method: (§1)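 Replicon inhibition for both genotypes was measured as Renilla luciferase signal (EnduRen, 7.5 μM final, 2 h) after 3-day, 37° C exposure of replicon-bearing HUH-7 cells in 4% FCS DMEM, 0.5% DMSO. The 1b construct carries S1179I; the 1a H77 construct carries P1496L and S2204I. Twenty-point, 3-fold dilutions were fitted four-parametrically for EC50, and CC50 was taken from multiplexed Cell Titer-Blue.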

[2] = system: HCV genotype 1b (Con1) replicon in HUH-7 cells; assay: HCV replicon luciferase reporter assay, genotype 1b; assay type: cell-based; conditions: Hepatitis C virus, Huh-7, 72 h, 3 days incubation
Summary of the method: as §1

[3] = GETYPE1A, HCV genotype 1a replicon luciferase, read-out: LE_1a (EC50, range)
[4] = GETYPE1B, HCV genotype 1b replicon luciferase, read-out: LE_1b (EC50, range)
[5] = HCV genotype 1a replicon luciferase assay, range class, read-out: LE_1a (EC50, range)
[6] = HCV genotype 1b replicon luciferase assay, range class, read-out: LE_1b (EC50, range)

| SMILES | EC50 [1, 3] [nM] | EC50 [2, 4] [nM] | EC50 [1, 5] [nM] | EC50 [2, 6] [nM] | EC50 ([1]; HCV genotype 1a replicon luciferase assay, read-out: LE_1a (EC50)) [nM] | EC50 ([2]; HCV genotype 1b replicon luciferase assay, read-out: LE_1b (EC50)) [nM] |
| --- | --- | --- | --- | --- | --- | --- |
| CC[C@@H]1C[C@H](C)CC/C=C\[C@@H]2C[C@@]2(C(=O)NS(=O)(=O)C2CC2)NC(=O)[C@@H]2C[C@@H](Oc3cc(OC)nc4cc(OC)ccc34)CN2C(=O)[C@H]1NC(=O)OC(C)(C)C(F)(F)F [Compound 1211] | 1.01 to 5 | 0.51 to 1 |  |  |  |  |
| CC[C@@H]1C[C@H](C)CC/C=C\[C@@H]2C[C@@]2(C(=O)NS(=O)(=O)C2CC2)NC(=O)[C@@H]2C[C@@H](Oc3cc(OC)nc4cc(OC)ccc34)CN2C(=O)[C@H]1NC(=O)OC(C)(C)C(C)(F)F [Compound 1212] | 1.01 to 5 | 0.1 to 0.5 |  |  |  |  |
| COc1ccc2c(O[C@@H]3C[C@H]4C(=O)N[C@]5(C(=O)NS(=O)(=O)C6(C)CC6)C[C@H]5/C=C\CC[C@@H](C)C[C@@H](C)[C@H](NC(=O)OC(C)(C)C(F)(F)F)C(=O)N4C3)cc(OC)nc2c1 [Compound 1213] | 1.01 to 5 | 0.51 to 1 |  |  |  |  |
| COc1ccc2c(O[C@@H]3C[C@H]4C(=O)N[C@]5(C(=O)NS(=O)(=O)C6(C)CC6)C[C@H]5/C=C\CC[C@@H](C)C[C@@H](C)[C@H](NC(=O)OC(C)(C)C(C)(F)F)C(=O)N4C3)cc(OC)nc2c1 [Compound 1214] | 1.01 to 5 | 0.1 to 0.5 |  |  |  |  |
| C[C@@H]1CCC(O)C[C@@H]2C[C@@]2(C(=O)NS(=O)(=O)C2(C)CC2)NC(=O)[C@@H]2C[C@@H](Oc3ncc(OC4CC4)c4ccccc34)CN2C(=O)[C@@H](NC(=O)OC(C)(C)C(F)(F)F)[C@H](C)C1 (stereo partly drawn) [Compound 2001, 1,1,1-trifluoro-2-methylpropan-2-yl ((2R,6S,7R,9R,13aS,14aR,16aS)-2-((4-cyclopropoxyisoquinolin-1-yl)oxy)-12-hydroxy-7,9-dimethyl-14a-(((1-methylcyclopropyl)sulfonyl)carbamoyl)-5,16-dioxooctadecahydrocyclopropa[e]pyrrolo[1,2-a][1,4]diazacyclopentadecin-6-yl)carbamate] |  |  | 4.82 to 103 | 4.82 to 103 |  |  |
| C[C@@H]1CCCC(O)[C@@H]2C[C@@]2(C(=O)NS(=O)(=O)C2(C)CC2)NC(=O)[C@@H]2C[C@@H](Oc3ncc(OC4CC4)c4ccccc34)CN2C(=O)[C@@H](NC(=O)OC(C)(C)C(F)(F)F)[C@H](C)C1 (some centres unmarked) [Compound 2002] |  |  | 4.82 to 103 | 4.82 to 103 |  |  |
| C[C@@H]1CC/C=C\[C@@H]2C[C@@]2(C(=O)NS(=O)(=O)C2(C)CC2)NC(=O)[C@@H]2C[C@@H](Oc3nccc4cc(OCC(=O)O)ccc34)CN2C(=O)[C@@H](NC(=O)OC(C)(C)C)[C@H](C)C1 [Compound 2003, 2-((1-(((2R,6S,7R,9R,13aS,14aR,16aS,Z)-6-((tert-butoxycarbonyl)amino)-7,9-dimethyl-14a-(((1-methylcyclopropyl)sulfonyl)carbamoyl)-5,16-dioxo-1,2,3,5,6,7,8,9,10,11,13a,14,14a,15,16,16a-hexadecahydrocyclopropa[e]pyrrolo[1,2-a][1,4]diazacyclopentadecin-2-yl)oxy)isoquinolin-6-yl)oxy)acetic acid] |  |  | > 87.4 | > 87.4 | 330 | 158 |
| COc1ccc2c(O[C@@H]3C[C@H]4C(=O)N[C@]5(C(=O)NS(=O)(=O)C6(C)CC6)C[C@H]5/C=C\CC[C@H](C)C[C@@H](C)[C@H](NC(=O)OC(C)(C)C)C(=O)N4C3)nc(N(C)C)nc2c1 [Compound 3001, tert-butyl ((2R,6S,7R,9S,13aS,14aR,16aS,Z)-2-((2-(dimethylamino)-7-methoxyquinazolin-4-yl)oxy)-7,9-dimethyl-14a-(((1-methylcyclopropyl)sulfonyl)carbamoyl)-5,16-dioxo-1,2,3,5,6,7,8,9,10,11,13a,14,14a,15,16,16a-hexadecahydrocyclopropa[e]pyrrolo[1,2-a][1,4]diazacyclopentadecin-6-yl)carbamate] |  |  | < 5.46 | < 5.46 |  |  |
| COc1ccc2c(O[C@@H]3C[C@H]4C(=O)N[C@]5(C(=O)NS(=O)(=O)C6(C)CC6)C[C@H]5/C=C\CC[C@@H](C)C[C@@H](C)[C@H](NC(=O)OC(C)(C)C)C(=O)N4C3)nc(N(C)C)nc2c1 [Compound 3002, tert-butyl ((2R,6S,7R,9R,13aS,14aR,16aS,Z)-2-((2-(dimethylamino)-7-methoxyquinazolin-4-yl)oxy)-7,9-dimethyl-14a-(((1-methylcyclopropyl)sulfonyl)carbamoyl)-5,16-dioxo-1,2,3,5,6,7,8,9,10,11,13a,14,14a,15,16,16a-hexadecahydrocyclopropa[e]pyrrolo[1,2-a][1,4]diazacyclopentadecin-6-yl)carbamate] |  |  | < 5.46 | < 5.46 |  |  |
| COc1ccc2c(O[C@@H]3C[C@H]4C(=O)N[C@]5(C(=O)NS(=O)(=O)C6(C)CC6)C[C@H]5/C=C\CC[C@H](C)C[C@@H](C)[C@H](NC(=O)OC(C)(C)C(F)(F)F)C(=O)N4C3)nc(N(C)C)nc2c1 [Compound 3003, 1,1,1-trifluoro-2-methylpropan-2-yl((2R,6S,7R,9S,13aS,14aR,16aS,Z)-2-((2-(dimethylamino)-7-methoxyquinazolin-4-yl)oxy)-7,9-dimethyl-14a-(((1-methylcyclopropyl)sulfonyl)carbamoyl)-5,16-dioxo-1,2,3,5,6,7,8,9,10,11,13a,14,14a,15,16,16a-hexadecahydrocyclopropa[e]pyrrolo[1,2-a][1,4]diazacyclopentadecin-6-yl)carbamate] |  |  | < 5.46 | < 5.46 |  |  |
| COc1ccc2c(O[C@@H]3C[C@H]4C(=O)N[C@]5(C(=O)NS(=O)(=O)C6(C)CC6)C[C@H]5/C=C\CC[C@@H](C)C[C@@H](C)[C@H](NC(=O)OC(C)(C)C(F)(F)F)C(=O)N4C3)nc(N(C)C)nc2c1 [Compound 3004, 1,1,1-trifluoro-2-methylpropan-2-yl((2R,6S,7R,9R,13aS,14aR,16aS,Z)-2-((2-(dimethylamino)-7-methoxyquinazolin-4-yl)oxy)-7,9-dimethyl-14a-(((1-methylcyclopropyl)sulfonyl)carbamoyl)-5,16-dioxo-1,2,3,5,6,7,8,9,10,11,13a,14,14a,15,16,16a-hexadecahydrocyclopropa[e]pyrrolo[1,2-a][1,4]diazacyclopentadecin-6-yl)carbamate] |  |  | < 5.46 | < 5.46 |  |  |
| COc1ccc2c(O[C@@H]3C[C@H]4C(=O)N[C@]5(C(=O)NS(=O)(=O)C6(CF)CC6)C[C@H]5/C=C\CC[C@H](C)C[C@@H](C)[C@H](NC(=O)OC(C)(C)C)C(=O)N4C3)nc(N(C)C)nc2c1 [Compound 3005, tert-butyl ((2R,6S,7R,9S,13aS,14aR,16aS,Z)-2-((2-(dimethylamino)-7-methoxyquinazolin-4-yl)oxy)-14a-(((1-(fluoromethyl)cyclopropyl)sulfonyl)carbamoyl)-7,9-dimethyl-5,16-dioxo-1,2,3,5,6,7,8,9,10,11,13a,14,14a,15,16,16a-hexadecahydrocyclopropa[e]pyrrolo[1,2-a][1,4]diazacyclopentadecin-6-yl)carbamate] |  |  | 4.82 to 103 | 4.82 to 103 |  |  |
| COc1ccc2c(O[C@@H]3C[C@H]4C(=O)N[C@]5(C(=O)NS(=O)(=O)C6(CF)CC6)C[C@H]5/C=C\CC[C@@H](C)C[C@@H](C)[C@H](NC(=O)OC(C)(C)C)C(=O)N4C3)nc(N(C)C)nc2c1 [Compound 3006, tert-butyl ((2R,6S,7R,9R,13aS,14aR,16aS,Z)-2-((2-(dimethylamino)-7-methoxyquinazolin-4-yl)oxy)-14a-(((1-(fluoromethyl)cyclopropyl)sulfonyl)carbamoyl)-7,9-dimethyl-5,16-dioxo-1,2,3,5,6,7,8,9,10,11,13a,14,14a,15,16,16a-hexadecahydrocyclopropa[e]pyrrolo[1,2-a][1,4]diazacyclopentadecin-6-yl)carbamate] |  |  | < 5.46 | < 5.46 |  |  |
| COc1ccc2c(O[C@@H]3C[C@H]4C(=O)N[C@]5(C(=O)NS(=O)(=O)C6(C)CC6)C[C@H]5/C=C\CC[C@H](C)C[C@@H](C)[C@H](NC(=O)OC(C)(C)C)C(=O)N4C3)nc(-c3ccc(OC(C)C)cc3)nc2c1 [Compound 3007, tert-butyl ((2R,6S,7R,9S,13aS,14aR,16aS,Z)-2-((2-(4-isopropoxyphenyl)-7-methoxyquinazolin-4-yl)oxy)-7,9-dimethyl-14a-(((1-methylcyclopropyl)sulfonyl)carbamoyl)-5,16-dioxo-1,2,3,5,6,7,8,9,10,11,13a,14,14a,15,16,16a-hexadecahydrocyclopropa[e]pyrrolo[1,2-a][1,4]diazacyclopentadecin-6-yl)carbamate] |  |  | < 5.46 | < 5.46 |  |  |
| COc1ccc2c(O[C@@H]3C[C@H]4C(=O)N[C@]5(C(=O)NS(=O)(=O)C6(C)CC6)C[C@H]5/C=C\CC[C@@H](C)C[C@@H](C)[C@H](NC(=O)OC(C)(C)C)C(=O)N4C3)nc(-c3ccc(OC(C)C)cc3)nc2c1 [Compound 3008, tert-butyl ((2R,6S,7R,9R,13aS,14aR,16aS,Z)-2-((2-(4-isopropoxyphenyl)-7-methoxyquinazolin-4-yl)oxy)-7,9-dimethyl-14a-(((1-methylcyclopropyl)sulfonyl)carbamoyl)-5,16-dioxo-1,2,3,5,6,7,8,9,10,11,13a,14,14a,15,16,16a-hexadecahydrocyclopropa[e]pyrrolo[1,2-a][1,4]diazacyclopentadecin-6-yl)carbamate] |  |  | < 5.46 | < 5.46 |  |  |
